11 molecules from patent US12398154B2, “Azaquinazoline pan-KRas inhibitors” (Mirati Therapeutics, Inc., priority 2020, dated 2025) can be followed below.

The target in one assay is KRas G12D (Homo sapiens, UniProt P01116, G12D). Description: biochemical.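 Note: TR-FRET displacement binding assay on KRas, read after a one-hour incubation at room temperature, IC50 fitted from percent-of-control values.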
The target in the next assay is KRas G12V (Homo sapiens, UniProt P01116, G12V). Put plainly: biochemical.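 Note: KRas binding measured by TR-FRET displacement at room temperature, IC50 fitted from percent of control values.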
Another assay has as its target KRas G12R (Homo sapiens, UniProt P01116, G12R). Description: biochemical.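 Note: TR-FRET displacement assay of compound binding to KRas, read after one hour at room temperature, potency from a four-parameter fit of percent-of-control values.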
The test system of the next assay is pERK in MKN1 cells. Put plainly: Inhibition of KRas phosphorylation of ERK (Cisbio HTRF pERK assay). The conditions noted are these: Homo sapiens, MKN-1, 3 h, read-out: Inhibition (HTRF IC50) of KRas-mediated Phosphorylation of ERK, MKN1.
The subject of another assay is pERK in PSN1 cells. The assay is described as above. The note with it: Homo sapiens, PSN1, 3 h, read-out: Inhibition (HTRF IC50) of KRas-mediated Phosphorylation of ERK, PSN1. A general note: In TR-FRET formats the signal depends on donor and acceptor labels being close together.
A further assay has as its system pERK in ASPC1 cells. The assay is described as above. The note with it: Homo sapiens, ASPC1, read-out: Inhibition (HTRF IC50) of KRas-mediated Phosphorylation of ERK, AsPC-1.
A further assay relates to pERK in H727 cells. The assay is described as above. The note with it: Homo sapiens, NCI-H727, read-out: Inhibition (HTRF IC50) of KRas-mediated Phosphorylation of ERK, H727.
The test system of a further assay is pERK in HCT116 cells. The description is as above. The note with it: Homo sapiens, HCT-116, read-out: Inhibition (HTRF IC50) of KRas-mediated Phosphorylation of ERK, HCT116.
Another assay addresses KRas G12C (Homo sapiens, UniProt P01116, G12C). Put plainly: biochemical.
The target of the next assay is KRas WT (Homo sapiens, UniProt P01116). Put plainly: biochemical.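 Note: binding to KRas read as TR-FRET displacement after a one-hour room-temperature incubation, IC50 derived from percent-of-control values.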

Structures are written as SMILES.

Chain of KRas G12R (P01116 1-169 isoform P01116-2 G12R): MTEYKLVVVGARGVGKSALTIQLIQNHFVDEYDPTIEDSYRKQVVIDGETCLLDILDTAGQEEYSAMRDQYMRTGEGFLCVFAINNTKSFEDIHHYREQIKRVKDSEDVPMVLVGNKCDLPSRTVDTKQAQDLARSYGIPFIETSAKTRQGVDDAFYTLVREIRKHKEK
Chain of KRas WT (P01116 1-169 isoform P01116-2): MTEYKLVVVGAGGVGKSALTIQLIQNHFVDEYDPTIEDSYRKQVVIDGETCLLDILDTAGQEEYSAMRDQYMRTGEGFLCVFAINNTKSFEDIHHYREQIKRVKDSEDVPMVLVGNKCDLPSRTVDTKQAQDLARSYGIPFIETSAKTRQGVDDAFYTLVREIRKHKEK
Chain of KRas G12C (P01116 1-169 isoform P01116-2 G12C): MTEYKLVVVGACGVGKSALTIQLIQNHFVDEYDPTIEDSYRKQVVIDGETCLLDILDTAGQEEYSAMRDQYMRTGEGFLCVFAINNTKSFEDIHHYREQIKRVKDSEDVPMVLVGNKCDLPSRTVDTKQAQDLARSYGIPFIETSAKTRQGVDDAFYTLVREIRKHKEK
Chain of KRas G12D (P01116 1-169 isoform P01116-2 G12D): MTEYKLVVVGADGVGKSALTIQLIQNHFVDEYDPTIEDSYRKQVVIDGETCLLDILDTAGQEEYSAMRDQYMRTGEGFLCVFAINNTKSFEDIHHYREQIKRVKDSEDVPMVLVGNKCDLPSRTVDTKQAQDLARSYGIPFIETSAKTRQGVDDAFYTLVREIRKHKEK
Chain of KRas G12V (P01116 1-169 isoform P01116-2 G12V): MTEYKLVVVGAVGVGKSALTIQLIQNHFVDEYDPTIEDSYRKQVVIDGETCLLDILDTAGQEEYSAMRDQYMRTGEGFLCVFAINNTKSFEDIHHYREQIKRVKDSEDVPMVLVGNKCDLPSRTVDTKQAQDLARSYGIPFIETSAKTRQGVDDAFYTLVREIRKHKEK

Turning to `CCc1c(F)ccc2cc(O)cc(-c3ncc4c(N5CCCn6nc(C(=O)N(C)C)cc6C5)nc(OCC5(CN(C)C)CC5)nc4c3F)c12` [Example 333, 5-(2-((1-((dimethylamino)methyl)cyclopropyl)methoxy)-7-(8-ethyl-7-fluoro-3-hydroxynaphthalen-1-yl)-8-fluoropyrido[4,3-d]pyrimidin-4-yl)-N,N-dimethyl-5,6,7,8-tetrahydro-4H-pyrazolo[1,5-a][1,4]diazepine-2-carboxamide], the IC50 (in general, the concentration at which inhibition is half-maximal) on KRas G12D is at most 2 nM; at KRas G12V it was at most 2 nM; on KRas G12R, 5 nM; in the assay on pERK in MKN1 cells it was 425 nM; in the assay on pERK in PSN1 cells, at least 10000 nM; in the assay with pERK in ASPC1 cells, 603 nM. The IC50 came out at 2110 nM with pERK in H727 cells and 9190 nM with pERK in HCT116 cells.

In the case of `CCc1c(F)ccc2cc(O)cc(-c3ncc4c(N5CCOCC6(C5)NC(=O)NC6=O)nc(OC[C@@]56CCCN5C[C@H](F)C6)nc4c3F)c12` (stereo partly drawn) [Example 337, 10-(7-(8-ethyl-7-fluoro-3-hydroxynaphthalen-1-yl)-8-fluoro-2-(((2R,7aS)-2-fluorohexahydro-1H-pyrrolizin-7a-yl)methoxy)pyrido[4,3-d]pyrimidin-4-yl)-7-oxa-1,3,10-triazaspiro[4.6]undecane-2,4-dione], the IC50 at KRas G12D came out at 3 nM; against KRas G12V, 3 nM; against KRas G12R it was 5 nM; in the assay with pERK in MKN1 cells it was 49 nM; with pERK in PSN1 cells it was 1840 nM; with pERK in ASPC1 cells it was 514 nM. Besides, the results for the IC50 in the assay with pERK in H727 cells and with pERK in HCT116 cells were 395 nM and 438 nM, respectively.

Consider `CCc1c(F)ccc2cc(O)cc(-c3ncc4c(N5CCCCC6(C5)NC(=O)NC6=O)nc(OC[C@@]56CCCN5C[C@H](F)C6)nc4c3F)c12` (stereo partly drawn) [Example 338, 7-(7-(8-ethyl-7-fluoro-3-hydroxynaphthalen-1-yl)-8-fluoro-2-(((2R,7aS)-2-fluorotetrahydro-1H-pyrrolizin-7a(5H)-yl)methoxy)pyrido[4,3-d]pyrimidin-4-yl)-1,3,7-triazaspiro[4.6]undecane-2,4-dione], for which the IC50 is at most 2 nM on KRas G12D; 3 nM against KRas G12V; 4 nM at KRas G12R; 24 nM in the assay on pERK in MKN1 cells; 2880 nM in the assay with pERK in PSN1 cells; 695 nM in the assay on pERK in ASPC1 cells. For the same molecule, the IC50 came out at 377 nM in the assay with pERK in H727 cells and 487 nM with pERK in HCT116 cells.

As to `CCc1c(F)ccc2cc(O)cc(-c3ncc4c(N5CCCn6nc(CO)cc6C5)nc(OC[C@@]56CCCN5C[C@H](F)C6)nc4c3F)c12` [Example 341, 5-ethyl-6-fluoro-4-(8-fluoro-2-(((2R,7aS)-2-fluorohexahydro-1H-pyrrolizin-7a-yl)methoxy)-4-(2-(hydroxymethyl)-7,8-dihydro-4H-pyrazolo[1,5-a][1,4]diazepin-5(6H)-yl)pyrido[4,3-d]pyrimidin-7-yl)naphthalen-2-ol], the IC50 against KRas G12D was at most 2 nM; on KRas G12V it was 3 nM; against KRas G12R, at most 2 nM; in the assay on pERK in MKN1 cells it was 86 nM; with pERK in PSN1 cells, at least 10000 nM; in the assay on pERK in ASPC1 cells, 472 nM. In addition, the IC50 came to 1040 nM with pERK in H727 cells and 1320 nM in the assay with pERK in HCT116 cells.

Take `CCc1c(F)ccc2cc(O)cc(-c3ncc4c(N5CCCC(N6CCCS6(=O)=O)C5)nc(OC[C@@]56CCCN5C[C@H](F)C6)nc4c3F)c12` (stereo partly drawn) [Example 348, 2-(1-(7-(8-ethyl-7-fluoro-3-hydroxynaphthalen-1-yl)-8-fluoro-2-(((2R,7aS)-2-fluorotetrahydro-1H-pyrrolizin-7a(5H)-yl)methoxy)pyrido[4,3-d]pyrimidin-4-yl)piperidin-3-yl)isothiazolidine 1,1-dioxide]: the IC50 at KRas G12D is 6 nM; against KRas G12V, 3 nM; against KRas G12R it was at most 2 nM; in the assay with pERK in MKN1 cells, 7 nM; in the assay with pERK in PSN1 cells it was at least 10000 nM; in the assay with pERK in ASPC1 cells, 275 nM. For the same molecule, the IC50 with pERK in H727 cells was 273 nM; with pERK in HCT116 cells it was 245 nM.

Turning to `CCc1c(F)ccc2cc(O)cc(-c3ncc4c(NC5CCS(=O)(=O)C5)nc(OC[C@@]56CCCN5C[C@H](F)C6)nc4c3F)c12` (stereo partly drawn) [Example 349, 3-((7-(8-ethyl-7-fluoro-3-hydroxynaphthalen-1-yl)-8-fluoro-2-(((2R,7aS)-2-fluorotetrahydro-1H-pyrrolizin-7a(5H)-yl)methoxy)pyrido[4,3-d]pyrimidin-4-yl)amino)tetrahydrothiophene 1,1-dioxide], the IC50 at KRas G12D was 20 nM; against KRas G12V it was 4 nM; at KRas G12R, 7 nM; with pERK in MKN1 cells, 149 nM; with pERK in PSN1 cells, at least 10000 nM; in the assay with pERK in ASPC1 cells it was 475 nM. Also, the values for the IC50 in the assay with pERK in H727 cells and in the assay with pERK in HCT116 cells were 1860 nM and 2250 nM, respectively.

In the case of `CCc1c(F)ccc2cc(O)cc(-c3ncc4c(N5CC6CCC(C6)C5)nc(OC[C@@]56CCCN5C[C@H](F)C6)nc4c3F)c12` [Example 350, 4-(4-(3-azabicyclo[3.2.I]octan-3-yl)-8-fluoro-2-(((2R,7aS)-2-fluorohexahydro-1H-pyrrolizin-7a-yl)methoxy)pyrido[4,3-d]pyrimidin-7-yl)-5-ethyl-6-fluoronaphthalen-2-ol], the IC50 against KRas G12D is 30 nM; against KRas G12V it was 8 nM; at KRas G12R, 8 nM; in the assay with pERK in MKN1 cells, 209 nM; with pERK in PSN1 cells, at least 10000 nM; in the assay on pERK in ASPC1 cells, 241 nM. The values for the IC50 in the assay with pERK in H727 cells and in the assay on pERK in HCT116 cells were 334 nM and 797 nM, respectively.

Take `CCc1c(F)ccc2cc(O)cc(-c3ncc4c(NCCN5C(=O)CNC5=O)nc(OC[C@@]56CCCN5C[C@H](F)C6)nc4c3F)c12` [Example 379, 3-(2-((7-(8-ethyl-7-fluoro-3-hydroxynaphthalen-1-yl)-8-fluoro-2-(((2R,7aS)-2-fluorohexahydro-1H-pyrrolizin-7a-yl)methoxy)pyrido[4,3-d]pyrimidin-4-yl)amino)ethyl)imidazolidine-2,4-dione]: the IC50 was 111 nM at KRas G12D; 14 nM on KRas G12V; 34 nM at KRas G12R; 21 nM at KRas G12C; 26 nM against KRas WT; at least 10000 nM with pERK in MKN1 cells. Also, the IC50 in the assay on pERK in PSN1 cells was at least 10000 nM; in the assay on pERK in ASPC1 cells it was at least 20000 nM; in the assay on pERK in HCT116 cells, at least 20000 nM.

`CCc1c(F)ccc2cc(O)cc(-c3ncc4c(N5CCN6C(=O)NCC6C5)nc(OC[C@@]56CCCN5C[C@H](F)C6)nc4c3F)c12` (stereo partly drawn) [Example 380, 7-(7-(8-ethyl-7-fluoro-3-hydroxynaphthalen-1-yl)-8-fluoro-2-(((2R,7aS)-2-fluorohexahydro-1H-pyrrolizin-7a-yl)methoxy)pyrido[4,3-d]pyrimidin-4-yl)hexahydroimidazo[1,5-a]pyrazin-3(2H)-one]: the IC50 at KRas G12D is 275 nM; against KRas G12V, 51 nM; against KRas G12R it was 71 nM; against KRas G12C it was 54 nM; on KRas WT it was 18 nM; in the assay with pERK in MKN1 cells, 1100 nM. The 50% inhibitory concentration (IC50) with pERK in PSN1 cells is at least 10000 nM; in the assay with pERK in ASPC1 cells, at least 20000 nM; in the assay on pERK in HCT116 cells it was 3220 nM.

For the molecule `CCc1c(F)ccc2cc(O)cc(-c3ncc4c(N5CCN6C(=O)NC(=O)C6C5)nc(OC[C@@]56CCCN5C[C@H](F)C6)nc4c3F)c12` (stereo partly drawn) [Example 381, 7-(7-(8-ethyl-7-fluoro-3-hydroxynaphthalen-1-yl)-8-fluoro-2-(((2R,7aS)-2-fluorohexahydro-1H-pyrrolizin-7a-yl)methoxy)pyrido[4,3-d]pyrimidin-4-yl) tetrahydroimidazo[1,5-a]pyrazine-1,3(2H,5H)-dione], the IC50 against KRas G12D came to 23 nM; against KRas G12V, 11 nM; against KRas G12R it was 21 nM; against KRas G12C, 16 nM; against KRas WT, 5 nM; in the assay with pERK in MKN1 cells, 282 nM. For the same molecule, the IC50 is at least 10000 nM in the assay on pERK in PSN1 cells, at least 20000 nM with pERK in ASPC1 cells and 741 nM in the assay on pERK in HCT116 cells.

As for `C#Cc1c(F)ccc2cc(O)cc(-c3ncc4c(N5CCCC6(C5)NC(=O)NC6=O)nc(OC[C@@]56CCCN5C[C@H](F)C6)nc4c3F)c12` (stereo partly drawn) [Example 397, 7-(7-(8-ethynyl-7-fluoro-3-hydroxynaphthalen-1-yl)-8-fluoro-2-(((2R,7aS)-2-fluorohexahydro-1H-pyrrolizin-7a-yl)methoxy)pyrido[4,3-d]pyrimidin-4-yl)-1,3,7-triazaspiro[4.5]decane-2,4-dione], the IC50 was at most 2 nM on KRas G12D; at most 2 nM against KRas G12V; at most 2 nM on KRas G12R; 903 nM with pERK in ASPC1 cells; 1000 nM in the assay on pERK in H727 cells; 1460 nM with pERK in HCT116 cells.
